# Test results reported in ChEMBL document CHEMBL4346735, “Discovery and pharmacological evaluation of indole derivatives as potent and selective RORγt inverse agonist for multiple autoimmune conditions” (Bioorg Med Chem Lett, 2019).
# Calls of active or inactive are those of the source. The rule behind the calls is not given here.
# Key:
# [1] = Half life in Balb/c mouse at 3 mg/kg, iv administered as single dose by LC-MS/MS analysis; assay type: ADME, organism-based; conditions: in vivo
# [2] = AUC (0 to t) in Balb/c mouse at 3 mg/kg, iv administered as single dose by LC-MS/MS analysis; assay type: ADME, organism-based; conditions: in vivo
# [3] = molecular target: T1, Nuclear receptor ROR-gamma (Homo sapiens, UniProt P51449); experiment: Transactivation of recombinant GAL4-DBD fused RORgammat LBD (unknown origin) expressed in HEK293T cells incubated for 18 to 24 hrs by dual-Glo luciferase assay; assay type: cell-based
# T1 sequence (P51449 whole entry): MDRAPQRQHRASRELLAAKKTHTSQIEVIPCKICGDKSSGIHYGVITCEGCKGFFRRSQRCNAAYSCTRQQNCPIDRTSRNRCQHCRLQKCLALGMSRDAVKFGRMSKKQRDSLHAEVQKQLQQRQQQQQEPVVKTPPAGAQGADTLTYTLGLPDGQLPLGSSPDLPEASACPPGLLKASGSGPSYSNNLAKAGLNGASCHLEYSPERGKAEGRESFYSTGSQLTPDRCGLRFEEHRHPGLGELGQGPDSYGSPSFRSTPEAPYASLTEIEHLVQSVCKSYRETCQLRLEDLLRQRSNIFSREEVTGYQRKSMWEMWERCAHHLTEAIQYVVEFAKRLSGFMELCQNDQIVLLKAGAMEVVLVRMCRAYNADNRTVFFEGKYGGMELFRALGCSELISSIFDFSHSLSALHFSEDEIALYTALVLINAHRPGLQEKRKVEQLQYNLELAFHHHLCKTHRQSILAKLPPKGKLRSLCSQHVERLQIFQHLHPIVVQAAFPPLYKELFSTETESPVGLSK
# [4] = Clearance in Balb/c mouse at 3 mg/kg, iv administered as single dose by LC-MS/MS analysis; assay type: ADME, organism-based; conditions: in vivo
# [5] = Drug metabolism in human pooled liver microsomes assessed as oxidation metabolic rate at 1 uM preincubated for 5 mins followed by NADPH addition after 30 mins by LC-MS/MS analysis; assay type: ADME, Microsome; conditions: 0.5 h
# [6] = Metabolic stability in rat hepatocytes assessed as parent compound remaining after 30 mins; assay type: ADME, cell-based, Hepatocyte; conditions: read-out: Stability
# [7] = Oral bioavailability in Balb/c mouse at 10 mg/kg administered via gavage by LC-MS/MS analysis; assay type: ADME, organism-based; conditions: in vivo
# [8] = Drug metabolism in mouse liver microsomes assessed as oxidation metabolic rate at 1 uM preincubated for 5 mins followed by NADPH addition after 30 mins by LC-MS/MS analysis; assay type: ADME, Microsome; conditions: 0.5 h
# [9] = molecular target: T1, Nuclear receptor ROR-gamma; experiment: Inverse agonist activity at GST-tagged RORgammat LBD (unknown origin) using fluorescein-D22 co-activator peptide as substrate incubated for 1 hr by TR-FRET assay
# [10] = Drug metabolism in rat liver microsomes assessed as oxidation metabolic rate at 1 uM preincubated for 5 mins followed by NADPH addition after 30 mins by LC-MS/MS analysis; assay type: ADME, Microsome; conditions: 0.5 h
# Mus musculus [11] = experiment: Protection against imiquimod-induced skin inflammation in BALB/c mouse psoriasis model assessed as decrease in ear thickness administered topically at 25 mg qd treated for 1 hr before IMQ application measured at day 5; assay type: functional, organism-based
# Mus musculus [12] = experiment: Protection against imiquimod-induced skin inflammation in BALB/c mouse psoriasis model assessed as decrease in scaling administered topically at 25 mg qd treated for 1 hr before IMQ application measured at day 5; assay type: functional, organism-based
# [13] = molecular target: T2, Nuclear receptor ROR-gamma (Mus musculus) (UniProt P51450); experiment: Transrepression of RORgammat in Balb/c mouse splenocytes assessed as inhibition of anti-CD3/anti-CD28 stimulated IL-17 gene expression at 30 uM measured after 24 hrs in presence of anti-CD3/anti-CD28; assay type: cell-based
# T2 sequence (whole entry): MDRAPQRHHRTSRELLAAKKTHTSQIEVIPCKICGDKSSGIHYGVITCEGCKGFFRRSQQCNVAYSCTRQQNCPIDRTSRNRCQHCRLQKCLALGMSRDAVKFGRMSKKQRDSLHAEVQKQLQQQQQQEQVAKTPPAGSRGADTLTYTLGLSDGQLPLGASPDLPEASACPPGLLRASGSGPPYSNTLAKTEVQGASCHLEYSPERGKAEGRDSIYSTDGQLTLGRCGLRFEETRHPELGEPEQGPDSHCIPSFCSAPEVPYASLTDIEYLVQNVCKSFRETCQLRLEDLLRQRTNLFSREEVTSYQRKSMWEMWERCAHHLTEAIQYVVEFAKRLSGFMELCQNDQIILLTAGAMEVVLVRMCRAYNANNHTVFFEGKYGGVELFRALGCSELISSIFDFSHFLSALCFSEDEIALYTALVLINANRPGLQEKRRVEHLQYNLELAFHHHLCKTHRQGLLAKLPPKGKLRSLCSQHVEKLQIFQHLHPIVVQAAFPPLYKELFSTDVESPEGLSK
# [14] = molecular target: T2, Nuclear receptor ROR-gamma (Mus musculus); experiment: Transrepression of RORgammat in Balb/c mouse splenocytes assessed as inhibition of anti-CD3/anti-CD28 stimulated IL-17 gene expression at 0.3 uM measured after 24 hrs in presence of anti-CD3/anti-CD28; assay type: cell-based
# [15] = molecular target: T3, Nuclear receptor ROR-gamma (Mus musculus, UniProt P51450); experiment: Inverse agonist activity at RORgammat in mouse splenocytes derived naive T cells assessed as suppression of T cell differentiation to Th17 cells by measuring IL-17 secretion in presence of […]/anti-IFNgamma/TGFbeta/IL-6 for 6 days by ELISA; assay type: cell-based
# T3 sequence (P51450 whole entry): T2 sequence (whole entry)
# [16] = molecular target: T2, Nuclear receptor ROR-gamma (Mus musculus); experiment: Transrepression of RORgammat in Balb/c mouse splenocytes assessed as inhibition of anti-CD3/anti-CD28 stimulated IL-17 gene expression at 3 uM measured after 24 hrs in presence of anti-CD3/anti-CD28; assay type: cell-based
# [17] = AUC (0 to 24 hrs) in Balb/c mouse at 3 mg/kg, iv; assay type: ADME, organism-based; parameters: time < 24 hr, dose 3 mg/kg, route intravenous; conditions: in vivo
# [18] = Half life in Sprague-Dawley rat at 3 mg/kg, iv administered as single dose measured up to 24 hrs by LC-MS/MS analysis; assay type: ADME, organism-based; conditions: in vivo
# [19] = AUC (0 to 24 hrs) in Balb/c mouse at 10 mg/kg, po; assay type: ADME, organism-based; parameters: time < 24 hr, dose 10 mg/kg, route oral; conditions: in vivo
# [20] = Tmax in Sprague-Dawley rat at 10 mg/kg, po via gavage measured up to 24 hrs by LC-MS/MS analysis; assay type: ADME, organism-based; conditions: in vivo
# [21] = Oral bioavailability in Balb/c mouse at 10mg/kg; assay type: ADME, organism-based; conditions: in vivo
# [22] = Half life in Balb/c mouse at 3 mg/kg, iv; assay type: ADME, organism-based; conditions: in vivo
# [23] = Clearance in Sprague-Dawley rat at 3 mg/kg, iv administered as single dose measured up to 24 hrs by LC-MS/MS analysis; assay type: ADME, organism-based; conditions: in vivo
# [24] = AUC (0 to 24 hrs) in Sprague-Dawley rat at 3 mg/kg, iv administered as single dose measured up to 24 hrs by LC-MS/MS analysis; assay type: ADME, organism-based; parameters: time < 24 hr, dose 3 mg/kg, route intravenous; conditions: in vivo
# [25] = Volume of distribution at steady state in Sprague-Dawley rat at 3 mg/kg, iv administered as single dose measured up to 24 hrs by LC-MS/MS analysis; assay type: ADME, organism-based; conditions: in vivo, read-out: Vdss
# [26] = AUC (0 to 24 hrs) in Sprague-Dawley rat at 10 mg/kg, po via gavage measured up to 24 hrs by LC-MS/MS analysis; assay type: ADME, organism-based; parameters: time < 24 hr, dose 10 mg/kg, route oral; conditions: in vivo
# [27] = Tmax in Balb/c mouse at 10 mg/kg, po; assay type: ADME, organism-based; conditions: in vivo
# [28] = Clearance in Balb/c mouse at 3 mg/kg, iv; assay type: ADME, organism-based; conditions: in vivo
# [29] = Cmax in Balb/c mouse at 10 mg/kg, po; assay type: ADME, organism-based; parameters: dose 10 mg/kg, route oral; conditions: in vivo
# [30] = Half life in Sprague-Dawley rat at 10 mg/kg, po via gavage measured up to 24 hrs by LC-MS/MS analysis; assay type: ADME, organism-based; conditions: in vivo
# [31] = Half life in Balb/c mouse at 10 mg/kg, po; assay type: ADME, organism-based; conditions: in vivo
# [32] = AUC (0 to infinity) in Balb/c mouse at 3 mg/kg, iv; assay type: ADME, organism-based; parameters: dose 3 mg/kg, route intravenous, time infinity; conditions: in vivo
# [33] = AUC (0 to infinity) in Sprague-Dawley rat at 10 mg/kg, po via gavage measured up to 24 hrs by LC-MS/MS analysis; assay type: ADME, organism-based; parameters: dose 10 mg/kg, time infinity, route oral; conditions: in vivo
# [34] = AUC (0 to infinity) in Balb/c mouse at 10 mg/kg, po; assay type: ADME, organism-based; parameters: dose 10 mg/kg, time infinity, route oral; conditions: in vivo
# [35] = Volume of distribution at steady state in Balb/c mouse at 3 mg/kg, iv; assay type: ADME, organism-based; conditions: in vivo, read-out: Vdss
# [36] = AUC (0 to infinity) in Sprague-Dawley rat at 3 mg/kg, iv administered as single dose measured up to 24 hrs by LC-MS/MS analysis; assay type: ADME, organism-based; parameters: dose 3 mg/kg, time infinity, route intravenous; conditions: in vivo
# [37] = Cmax in Sprague-Dawley rat at 10 mg/kg, po via gavage measured up to 24 hrs by LC-MS/MS analysis; assay type: ADME, organism-based; parameters: dose 10 mg/kg, route oral; conditions: in vivo
# [38] = Oral bioavailability in Sprague-Dawley rat at 10mg/kg via gavage measured up to 24 hrs by LC-MS/MS analysis; assay type: ADME, organism-based; conditions: in vivo
smiles,measurement,setting,value
O=C(O)c1ccc(-n2nc(C(=O)c3c(Cl)cccc3Cl)c3ccccc32)cc1,half-life,[1],1.4 h
same,AUC(0-t),[2],5.9 µM·h
same,IC50,[3],29 nM
same,clearance,[4],19.6 mL/min/kg
same,Drug metabolism,[5],0.07 nmol/min/mg
same,remaining at 0.5 h,[6],17%
same,bioavailability,[7],29%
same,Drug metabolism,[8],< 0.04 nmol/min/mg
same,IC50,[9],3.8 nM
same,Drug metabolism,[10],0.18 nmol/min/mg
C[C@H]1C[C@H]2[C@@H]3CCC4=CC(=O)C=C[C@]4(C)[C@@]3(F)[C@@H](O)C[C@]2(C)[C@@]1(O)C(=O)CO,Activity,Mus musculus [11],Active
same,Activity,Mus musculus [12],Active
O=C(O)c1ccc(-c2nn(C(=O)c3c(Cl)cccc3Cl)c3ccccc23)cc1,inhibition,[13],52%
same,inhibition,[14],15%
same,half-life,[1],1.12 h
same,IC50,[15],43 nM
same,AUC(0-t),[2],13.2 µM·h
same,IC50,[3],20 nM
same,clearance,[4],12.9 mL/min/kg
same,Drug metabolism,[5],0.04 nmol/min/mg
same,inhibition,[16],48%
same,bioavailability,[7],42%
same,Drug metabolism,[8],< 0.04 nmol/min/mg
same,IC50,[9],2 nM
same,Drug metabolism,[10],0.19 nmol/min/mg
O=C([O-])c1ccc(-n2cc(C(=O)c3c(Cl)cccc3Cl)c3cccc(F)c32)cc1.[Na+],AUC(0-t) at 24 h,[17],4.2 µM·h
same,half-life,[18],3.47 h
same,AUC(0-t) at 24 h,[19],12.6 µM·h
same,Tmax,[20],0.5 h
same,bioavailability,[21],91%
same,half-life,[22],2.7 h
same,clearance,[23],28.9 mL/min/kg
same,AUC(0-t) at 24 h,[24],3.69 µM·h
same,Vd,[25],4.32 L/kg
same,AUC(0-t) at 24 h,[26],6.7 µM·h
same,Tmax,[27],0.5 h
same,clearance,[28],25.2 mL/min/kg
same,Cmax,[29],7 µM
same,half-life,[30],2.54 h
same,half-life,[31],3.5 h
same,AUC(0-inf),[32],4.6 µM·h
same,AUC(0-inf),[33],7.59 µM·h
same,AUC(0-inf),[34],12.7 µM·h
same,Vd,[35],4.3 L/kg
same,AUC(0-inf),[36],4.11 µM·h
same,Cmax,[37],3 µM
same,bioavailability,[38],50%
